Experimental data from publication PMC10892984, “Novel Antineoplastic Inducers of Mitochondrial Apoptosis in Human Cancer Cells” (Molecules, 2024).

Legend:
SNB-19 = details: for TGI: SNB-19, CNS cancer (brain tumor), mutant p53, 48 h
DU-145 = details: for TGI: DU-145, prostate cancer, mutant p53, 48 h
OVCAR-8 = details: for TGI: OVCAR-8, ovarian cancer, mutant p53, 48 h
SK-OV-3 = details: for TGI: SK-OV-3, ovarian cancer, no p53 protein expressed, 48 h
CCRF-CEM = details: for TGI: leukemia, mutant p53, 48 h
PC-3 = details: for TGI: PC-3, prostate cancer, mutant p53 (null p53 protein), 48 h
MCF7 = details: for TGI: MCF7, breast cancer, wild-type p53, 48 h
CAKI-1 = details: for TGI: CAKI-1, renal cancer, wild-type p53, 48 h
786-0 = details: for TGI: 786-0, renal cancer, mutant p53, 48 h
OVCAR-3 = details: for TGI: OVCAR-3, ovarian cancer, mutant p53, 48 h
OVCAR-5 = details: for TGI: OVCAR-5, ovarian cancer, p53 Lit. inconclusive, 48 h
UACC-257 = details: for TGI: UACC-257, melanoma, wild-type p53, 48 h
LOX IMVI = details: for TGI: melanoma, wild-type p53, 48 h
ACHN = details: for TGI: renal cancer, wild-type p53, 48 h
SK-MEL-2 = details: for TGI: SK-MEL-2, melanoma, mutant p53, 48 h
SK-MEL-5 = details: for TGI: SK-MEL-5, melanoma, wild-type p53, 48 h
HT29 = details: for TGI: HT29, colon cancer, mutant p53, 48 h
RXF 393 = details: for TGI: RXF 393, renal cancer, mutant p53, 48 h
HCT-15 = details: for TGI: HCT-15, colon cancer, mutant p53, 48 h
A549 = details: for TGI: A549, non-small-cell lung cancer, wild-type p53, 48 h
COLO 205 = details: for TGI: COLO 205, colon cancer, mutant p53, 48 h
MDA-MB-468 = details: for TGI: MDA-MB-468, breast cancer, mutant p53, 48 h
RPMI-8226 = details: for TGI: RPMI-8226, leukemia, mutant p53, 48 h
SF-539 = details: for TGI: SF-539, CNS cancer (brain tumor), mutant p53, 48 h
PC-3 cells = experiment: Cytochrome c assay (mitochondrial and cytosolic), ELISA; assay type: cell-based, human; details: for toxicity for the cell line: 50 µM and 75 µM, 48 h post-treatment
Experimental: (§1) Cell numbers of 2 × 10^6 PC-3 and DU-145 cells were seeded into a […]. […] The protein content for each fraction was calculated to determine the mass content of cytochrome c in each fraction (pg cytochrome c/mg total protein). The mass content of cytochrome c (pg cytochrome c/mg total protein) was normalized towards the corresponding blank DMSO control and is given in percent (%) of blank DMSO control.

DU-145 cells = experiment: as above; assay type: cell-based, human; details: for toxicity for the cell line: 50 µM and 75 µM, 48 h post-treatment
Experimental: as §1

[1] = Homo sapiens, 48 h, read-out: LC50
[2] = 48 h, tested 500 nM, 1 µM, 5 µM, 25 µM

COc1cc2c(c(OC)c1OC)-c1ccc(NNC(N)=S)c(=O)cc1C(NC(C)=O)CC2 [Compound 2, N-[(aS,7S)-10-(2-carbamothioylhydrazinyl)-1,2,3-trimethoxy-9-oxo-5,6,7,9-tetrahydrobenzo[a]heptalen-7-yl]acetamide monohydrate × ⅔ (ethyl acetate)]
GI50 (SNB-19; Homo sapiens, SNB-19, 48 h): 0.686 µM
CC50 (SNB-19; Homo sapiens, SNB-19, 48 h, read-out: LC50): > 100 µM
TGI (SNB-19): > 100 µM
TGI (DU-145): 1.44 µM
GI50 (DU-145; Homo sapiens, DU-145, 48 h): 0.341 µM
CC50 (DU-145; Homo sapiens, DU-145, 48 h, read-out: LC50): > 100 µM
GI50 (OVCAR-8; Homo sapiens, OVCAR-8, 48 h): 0.97 µM
CC50 (OVCAR-8; Homo sapiens, OVCAR-8, 48 h, read-out: LC50): > 100 µM
TGI (OVCAR-8): > 100 µM
GI50 (SK-OV-3; Homo sapiens, SK-OV-3, 48 h): 1.39 µM
CC50 (SK-OV-3; Homo sapiens, SK-OV-3, 48 h, read-out: LC50): > 100 µM
TGI (SK-OV-3): > 100 µM
GI50 (CCRF-CEM; Homo sapiens, 48 h): 0.422 µM
CC50 (CCRF-CEM; [1]): > 100 µM
TGI (CCRF-CEM): > 100 µM
GI50 (PC-3; Homo sapiens, PC-3, 48 h): 0.255 µM
CC50 (PC-3; Homo sapiens, PC-3, 48 h, read-out: LC50): > 100 µM
TGI (PC-3): > 100 µM
GI50 (MCF7; Homo sapiens, MCF7, 48 h): 0.415 µM
CC50 (MCF7; Homo sapiens, MCF7, 48 h, read-out: LC50): > 100 µM
TGI (MCF7): > 100 µM
TGI (CAKI-1): > 100 µM
GI50 (CAKI-1; Homo sapiens, CAKI-1, 48 h): 7.12 µM
CC50 (CAKI-1; Homo sapiens, CAKI-1, 48 h, read-out: LC50): > 100 µM
TGI (786-0): > 100 µM
GI50 (786-0; Homo sapiens, 786-0, 48 h): 0.818 µM
CC50 (786-0; Homo sapiens, 786-0, 48 h, read-out: LC50): > 100 µM
GI50 (OVCAR-3; Homo sapiens, OVCAR-3, 48 h): 0.217 µM
TGI (OVCAR-3): 0.459 µM
GI50 (OVCAR-5; Homo sapiens, OVCAR-5, 48 h): 9.67 µM
CC50 (OVCAR-5; Homo sapiens, OVCAR-5, 48 h, read-out: LC50): > 100 µM
TGI (OVCAR-5): > 100 µM
GI50 (UACC-257; Homo sapiens, UACC-257, 48 h): 0.646 µM
CC50 (UACC-257; Homo sapiens, UACC-257, 48 h, read-out: LC50): > 100 µM
TGI (UACC-257): > 100 µM
GI50 (LOX IMVI; Homo sapiens, 48 h): 0.71 µM
CC50 (LOX IMVI; [1]): > 100 µM
TGI (LOX IMVI): > 100 µM
GI50 (ACHN; Homo sapiens, 48 h): 8.5 µM
CC50 (ACHN; [1]): > 100 µM
TGI (ACHN): > 100 µM
GI50 (SK-MEL-2; Homo sapiens, SK-MEL-2, 48 h): > 100 µM
CC50 (SK-MEL-2; Homo sapiens, SK-MEL-2, 48 h, read-out: LC50): > 100 µM
TGI (SK-MEL-2): > 100 µM
GI50 (SK-MEL-5; Homo sapiens, SK-MEL-5, 48 h): 0.373 µM
CC50 (SK-MEL-5; Homo sapiens, SK-MEL-5, 48 h, read-out: LC50): > 100 µM
TGI (SK-MEL-5): 4.71 µM
TGI (HT29): > 100 µM
GI50 (HT29; Homo sapiens, HT-29, 48 h): 0.336 µM
CC50 (HT29; Homo sapiens, HT-29, 48 h, read-out: LC50): > 100 µM
GI50 (RXF 393; Homo sapiens, RXF 393, 48 h): 0.298 µM
CC50 (RXF 393; Homo sapiens, RXF 393, 48 h, read-out: LC50): > 100 µM
TGI (RXF 393): 0.747 µM
TGI (HCT-15): > 100 µM
GI50 (HCT-15; Homo sapiens, HCT-15, 48 h): 4.03 µM
CC50 (HCT-15; Homo sapiens, HCT-15, 48 h, read-out: LC50): > 100 µM
TGI (A549): > 100 µM
GI50 (A549; Homo sapiens, A549, 48 h): 3.23 µM
CC50 (A549; Homo sapiens, A549, 48 h, read-out: LC50): > 100 µM
TGI (COLO 205): 0.622 µM
GI50 (COLO 205; Homo sapiens, COLO 205, 48 h): 0.28 µM
CC50 (COLO 205; Homo sapiens, COLO 205, 48 h, read-out: LC50): 9.13 µM
GI50 (MDA-MB-468; Homo sapiens, MDA-MB-468, 48 h): 0.158 µM
CC50 (MDA-MB-468; Homo sapiens, MDA-MB-468, 48 h, read-out: LC50): > 100 µM
TGI (MDA-MB-468): 0.464 µM
GI50 (RPMI-8226; Homo sapiens, RPMI-8226, 48 h): 0.349 µM
CC50 (RPMI-8226; Homo sapiens, RPMI-8226, 48 h, read-out: LC50): > 100 µM
TGI (RPMI-8226): 8.65 µM
GI50 (SF-539; Homo sapiens, SF-539, 48 h): 0.418 µM
CC50 (SF-539; Homo sapiens, SF-539, 48 h, read-out: LC50): > 100 µM
TGI (SF-539): 20.5 µM
toxicity for the cell line (PC-3 cells; 25 µM): highly toxic
difference in the cytochrome c-residing cellular compartment (PC-3 cells; 48 h): failed to induce a significant difference
toxicity for the cell line (DU-145 cells; 25 µM): highly toxic
difference in the cytochrome c-residing cellular compartment (DU-145 cells; 48 h, stated as less significantly than in PC-3): failed to induce a significant difference

COc1cc2c(c(OC)c1OC)-c1ccc(NNC(=S)N(Cc3cccc(C[N+](Cc4cccc(CNC56CC7CC(CC(C7)C5)C6)c4)(Cc4cccc(CNC56CC7CC(CC(C7)C5)C6)c4)Cc4cccc(CN(C(=S)NNc5ccc6c(cc5=O)C(NC(C)=O)CCc5cc(OC)c(OC)c(OC)c5-6)C56CC7CC(CC(C7)C5)C6)c4)c3)C34CC5CC(CC(C5)C3)C4)c(=O)cc1C(NC(C)=O)CC2 [Compound 3, [(bis{3-[(tricyclo[3.3.1.1^3,7]decan-1-ylamino)methyl]benzyl}ammonio)bis(methanediylbenzene-3,1-diylmethanediyl)]di-2-[(aS,7S)-7-(acetylamino)-1,2,3-trimethoxy-9-oxo-5,6,7,9-tetrahydrobenzo[a]heptalen-10-yl]-N-(tricyclo[3.3.1.1^3,7]decan-1-yl)hydrazinecarbothioamide chloride pentahydrate]
TGI (SNB-19): 6.20 µM
TGI (DU-145): 7.10 µM
TGI (OVCAR-8): 7.49 µM
TGI (SK-OV-3): 7.51 µM
TGI (CCRF-CEM): 2.47 µM
TGI (PC-3): 5.64 µM
TGI (MCF7): 3.44 µM
TGI (CAKI-1): 7.37 µM
TGI (786-0): 5.28 µM
TGI (OVCAR-3): 6.53 µM
TGI (OVCAR-5): 5.03 µM
TGI (UACC-257): 10.3 µM
TGI (LOX IMVI): 2.86 µM
TGI (ACHN): 7.99 µM
TGI (SK-MEL-2): 2.76 µM
TGI (SK-MEL-5): 2.25 µM
TGI (HT29): 2.81 µM
TGI (RXF 393): 6.65 µM
TGI (HCT-15): 5.96 µM
TGI (A549): 6.00 µM
TGI (COLO 205): 1.52 µM
TGI (MDA-MB-468): 1.75 µM
TGI (RPMI-8226): 1.76 µM
TGI (SF-539): 4.30 µM
toxicity for the cell line (PC-3 cells; 25 µM): highly toxic
cell death with depletion of cytosolic cytochrome c (PC-3 cells; 25.0 µM, 48 h): induced complete cell death
concentration at which cytochrome c translocation from mitochondria into the cytosol was readily induced (PC-3 cells; [2]): 5.0 µM
toxicity for the cell line (DU-145 cells; 25 µM): highly toxic
concentration at which cytochrome c translocation from mitochondria into the cytosol was readily induced (DU-145 cells; [2]): 25.0 µM
